Values of other authors in patent publication US20080200434A1, “Chemical Target-Binding Compositions” (priority 2006, published 2008).

Assays:
[1] = aqueous association with glucose; Lorand and Edwards 1959
[2] = chronic exposure (Hubbard, S. A. 1998)

Structure (SMILES) | Kd [1] | no observed adverse effect level [2]
OB(O)c1ccccc1 [phenylboronic acid] | 9.1 mM | –
OB(O)O [boric acid] | – | 9-43 mg boron/kg/day
